One data set deals with Xanthium spinosum. The data set can be described thus: whole plant or invertebrate.
For the next data set, the system named is Aeschynomene indica. The data set can be described thus: whole plant or invertebrate.
For a further data set, the system named is Digitaria sanguinalis. As to conditions: for plant mortality, measured value: Digitaria sanguinalis; for Digitaria sanguinalis mortality, measured value: 20 days after treatment.
The next data set deals with Echinochloa crus. As to conditions: for plant mortality, measured value: Echinochloa crus; for Echinochloa crus mortality, measured value: 20 days after treatment.
The subject of the next data set is Abutilon theophrasti. The data set can be described thus: whole plant or invertebrate.
The mark [1] stands for this setting: read-out: plant mortality, measured value, 125 g/ha.
Setting [2] is: read-out: plant mortality, measured value, 250 g/ha.
Setting [3] is: read-out: plant mortality, measured value, 500 g/ha.
Where [4] appears, read: read-out: plant mortality, measured value, 175 g/ha.
The mark [5] stands for this setting: read-out: plant mortality, measured value, 350 g/ha.
[6] abbreviates: read-out: plant mortality, measured value, 700 g/ha.
[7] abbreviates: read-out: plant mortality, measured value, 25 g/ha.
[8] abbreviates: read-out: plant mortality, measured value, 50 g/ha.
[9] abbreviates: read-out: plant mortality, measured value, 100 g/ha.
Setting [10] is: 480 h, read-out: Xanthium spinosum mortality, measured value.
[11] abbreviates: 480 h, read-out: Aeschynomene indica mortality, measured value.
The mark [12] stands for this setting: 480 h, read-out: Abutilon theophrasti mortality, measured value.

The values below come from US10206399B2, “Herbicidal composition comprising uracil compound as active ingredient” (Dongbu Farm Hannong Co., Ltd., priority 2012, dated 2019).

Where two headings read alike, the source gives them in different places.

Excerpt for Abutilon theophrasti: (§1) X is % damage by uracil compound (a) of formula 1 at the rate of application of p kg/ha; Y is % damage by conventional herbicidal compound (b) at the rate of application of q kg/ha; and E is the expected damage caused by compounds (a) and (b) at a rate of application of p and q kg/ha.
(§2) The expected activity for a given combination of two herbicides can be calculated using equation 1 above.
Excerpt for Aeschynomene indica: as §1, §2
Excerpt for Digitaria sanguinalis: as §1, §2
Excerpt for Echinochloa crus: as §1, §2
Excerpt for Xanthium spinosum: as §1, §2

In the case of `CC(C)N1C(=O)c2ccccc2NS1(=O)=O` [Bentazone], the pest or weed control at 125 g/ha with Xanthium spinosum (setting [1]) came to 8%; in the data set on Aeschynomene indica (setting [1]), 10%; in the data set with Abutilon theophrasti (setting [1]), 9%. Further, the figures for the pest or weed control at 250 g/ha with Xanthium spinosum (setting [2]), in the data set on Aeschynomene indica (setting [2]) and with Abutilon theophrasti (setting [2]) were 18%, 22% and 22%, respectively. For the same compound, the pest or weed control at 500 g/ha was determined as 45% with Xanthium spinosum (setting [3]), 52% in the data set on Aeschynomene indica (setting [3]) and 49% in the data set on Abutilon theophrasti (setting [3]). Moreover, the “plant mortality, measured value” in the data set with Digitaria sanguinalis (125 g/ha), in the data set with Digitaria sanguinalis (250 g/ha), with Digitaria sanguinalis (500 g/ha), in the data set with Echinochloa crus (125 g/ha), with Echinochloa crus (250 g/ha) and in the data set with Echinochloa crus (500 g/ha) was 0 in each case.

For `COc1cc(OC)nc(Oc2cccc(Oc3nc(OC)cc(OC)n3)c2C(=O)O)n1` [Bispyribac-sodium], the pest or weed control at 15 g/ha with Xanthium spinosum (read-out: Data (measured value) Xanthium spinosum, 15 g/ha) was 27%; in the data set on Aeschynomene indica (read-out: Data (measured value) Aeschynomene indica, 15 g/ha) it was 23%; in the data set on Abutilon theophrasti (read-out: Data (measured value) Abutilon theophrasti, 15 g/ha), 31%. The pest or weed control at 30 g/ha in the data set with Xanthium spinosum (read-out: Data (measured value) Xanthium spinosum, 30 g/ha) was found to be 58%; with Aeschynomene indica (read-out: Data (measured value) Aeschynomene indica, 30 g/ha) it was 49%; with Abutilon theophrasti (read-out: Data (measured value) Abutilon theophrasti, 30 g/ha) it was 62%. Further, the results for the “Data (measured value) Digitaria sanguinalis” value in the data set on Digitaria sanguinalis (15 g/ha) and with Digitaria sanguinalis (30 g/ha) were 20 and 47, respectively. Besides, the “Data (measured value) Echinochloa crus” value in the data set with Echinochloa crus (15 g/ha) was 23; with Echinochloa crus (30 g/ha) it was 45.

For `Nc1cnn(-c2ccccc2)c(=O)c1Cl` [Chloridazon], the pest or weed control at 175 g/ha in the data set with Xanthium spinosum (setting [4]) is 7%; with Aeschynomene indica (setting [4]), 11%; with Abutilon theophrasti (setting [4]), 14%. In addition, the pest or weed control at 350 g/ha with Xanthium spinosum (setting [5]) is 22%; in the data set on Aeschynomene indica (setting [5]), 29%; in the data set on Abutilon theophrasti (setting [5]), 30%. The pest or weed control at 700 g/ha was 46% in the data set on Xanthium spinosum (setting [6]), 57% in the data set on Aeschynomene indica (setting [6]) and 64% with Abutilon theophrasti (setting [6]). Further, the “plant mortality, measured value” with Digitaria sanguinalis (175 g/ha) turned out to be 14; with Digitaria sanguinalis (350 g/ha), 28; in the data set on Digitaria sanguinalis (700 g/ha), 63; in the data set with Echinochloa crus (175 g/ha), 13; in the data set with Echinochloa crus (350 g/ha), 27; in the data set with Echinochloa crus (700 g/ha) it was 54.

`CCSC(C)CC1CC(=O)C(/C(CC)=N/OC/C=C/Cl)=C(O)C1` (stereo not shown) [Clethodim]: the pest or weed control at 25 g/ha is 0% in the data set on Xanthium spinosum (read-out: Data (measured value) Xanthium spinosum, 25 g/ha); 0% with Xanthium spinosum (setting [7]); 0% in the data set with Aeschynomene indica (read-out: Data (measured value) Aeschynomene indica, 25 g/ha); 0% with Aeschynomene indica (setting [7]); 0% in the data set with Abutilon theophrasti (read-out: Data (measured value) Abutilon theophrasti, 25 g/ha); 0% with Abutilon theophrasti (setting [7]). The pest or weed control at 50 g/ha with Xanthium spinosum (read-out: Data (measured value) Xanthium spinosum, 50 g/ha) turned out to be 0%; in the data set on Xanthium spinosum (setting [8]), 0%; in the data set on Aeschynomene indica (read-out: Data (measured value) Aeschynomene indica, 50 g/ha) it was 0%; in the data set on Aeschynomene indica (setting [8]) it was 0%; in the data set on Abutilon theophrasti (read-out: Data (measured value) Abutilon theophrasti, 50 g/ha) it was 0%; in the data set on Abutilon theophrasti (setting [8]), 0%. Further, the pest or weed control at 100 g/ha in the data set on Xanthium spinosum (read-out: Data (measured value) Xanthium spinosum, 100 g/ha) stood at 0%; with Xanthium spinosum (setting [9]) it was 0%; in the data set on Aeschynomene indica (read-out: Data (measured value) Aeschynomene indica, 100 g/ha), 0%; with Aeschynomene indica (setting [9]), 0%; in the data set with Abutilon theophrasti (read-out: Data (measured value) Abutilon theophrasti, 100 g/ha) it was 0%; in the data set with Abutilon theophrasti (setting [9]), 0%. For the same compound, the “Data (measured value) Digitaria sanguinalis” value is reported as 6 with Digitaria sanguinalis (25 g/ha), 19 with Digitaria sanguinalis (50 g/ha) and 45 in the data set on Digitaria sanguinalis (100 g/ha). Moreover, the “plant mortality, measured value” is on record as 6 with Digitaria sanguinalis (25 g/ha); 19 in the data set on Digitaria sanguinalis (50 g/ha); 45 with Digitaria sanguinalis (100 g/ha); 11 in the data set on Echinochloa crus (25 g/ha); 31 in the data set with Echinochloa crus (50 g/ha); 65 in the data set on Echinochloa crus (100 g/ha). For the same compound, the entries for the “Data (measured value) Echinochloa crus” value in the data set on Echinochloa crus (25 g/ha), in the data set with Echinochloa crus (50 g/ha) and in the data set with Echinochloa crus (100 g/ha) were 11, 31 and 65, respectively.

What is called mortality is the share of the test organisms that died. Turning to `COC(=O)CCNC(=O)C(C)Oc1cc(-n2c(=O)cc(C(F)(F)F)n(C)c2=O)c(F)cc1Cl` (stereo not shown) [Compound 1, 3-[{2-[2-chloro-5-(3,6-dihydro-3-methyl-2,6-dioxo-4-trifluoromethyl-1(2H)-pyrimidinyl)-4-fluorophenoxy]-1-oxopropyl}amino]propionic acid methyl ester], the mortality at 4 g/ha in the data set with Xanthium spinosum (setting [10]) was 11%; in the data set on Aeschynomene indica (setting [11]) it was 18%; in the data set with Abutilon theophrasti (setting [12]), 17%. Further, the mortality at 8 g/ha in the data set with Xanthium spinosum (setting [10]) turned out to be 39%; in the data set on Aeschynomene indica (setting [11]) it was 45%; with Abutilon theophrasti (setting [12]), 45%. The mortality at 16 g/ha with Xanthium spinosum (setting [10]) is 52%; in the data set with Aeschynomene indica (setting [11]) it was 60%; in the data set with Abutilon theophrasti (setting [12]), 60%. Further, the “Digitaria sanguinalis mortality, measured value” with Digitaria sanguinalis (4 g/ha) came to 0%; in the data set with Digitaria sanguinalis (8 g/ha), 5%; in the data set on Digitaria sanguinalis (16 g/ha) it was 20%. Moreover, the “Echinochloa crus mortality, measured value” in the data set with Echinochloa crus (4 g/ha) amounted to 0%; in the data set with Echinochloa crus (8 g/ha), 5%; in the data set with Echinochloa crus (16 g/ha) it was 17%.

Consider `COc1c(Cl)ccc(Cl)c1C(=O)O` [Dicamba], for which the pest or weed control at 75 g/ha stood at 13% with Xanthium spinosum (read-out: Data (measured value) Xanthium spinosum, 75 g/ha); 7% with Aeschynomene indica (read-out: Data (measured value) Aeschynomene indica, 75 g/ha); 9% with Abutilon theophrasti (read-out: Data (measured value) Abutilon theophrasti, 75 g/ha). The pest or weed control at 150 g/ha worked out at 29% in the data set with Xanthium spinosum (read-out: Data (measured value) Xanthium spinosum, 150 g/ha); 23% in the data set with Aeschynomene indica (read-out: Data (measured value) Aeschynomene indica, 150 g/ha); 20% in the data set on Abutilon theophrasti (read-out: Data (measured value) Abutilon theophrasti, 150 g/ha). Besides, the pest or weed control at 300 g/ha was 62% with Xanthium spinosum (read-out: Data (measured value) Xanthium spinosum, 300 g/ha); 51% in the data set with Aeschynomene indica (read-out: Data (measured value) Aeschynomene indica, 300 g/ha); 46% with Abutilon theophrasti (read-out: Data (measured value) Abutilon theophrasti, 300 g/ha). The “Data (measured value) Digitaria sanguinalis” value with Digitaria sanguinalis (75 g/ha), in the data set on Digitaria sanguinalis (150 g/ha) and in the data set with Digitaria sanguinalis (300 g/ha) was 0 each time. Further, the “Data (measured value) Echinochloa crus” value in the data set on Echinochloa crus (75 g/ha), in the data set on Echinochloa crus (150 g/ha) and in the data set with Echinochloa crus (300 g/ha) was 0 in each case.

For the compound `CC(Oc1ccc(Oc2nc3ccc(Cl)cc3o2)cc1)C(=O)O` (stereo not shown) [Fenoxaprop, reference compound], the mortality at 25 g/ha in the data set with Xanthium spinosum (setting [10]), with Aeschynomene indica (setting [11]) and in the data set with Abutilon theophrasti (setting [12]) was 0% each time. The mortality at 50 g/ha in the data set on Xanthium spinosum (setting [10]), in the data set on Aeschynomene indica (setting [11]) and with Abutilon theophrasti (setting [12]) was 0% throughout. The mortality at 100 g/ha in the data set with Xanthium spinosum (setting [10]), in the data set on Aeschynomene indica (setting [11]) and in the data set with Abutilon theophrasti (setting [12]) was 0% each time. Besides, the results for the “Digitaria sanguinalis mortality, measured value” in the data set with Digitaria sanguinalis (25 g/ha), in the data set on Digitaria sanguinalis (50 g/ha) and with Digitaria sanguinalis (100 g/ha) were 13%, 32% and 64%, respectively. Further, the “Echinochloa crus mortality, measured value” is on record as 13% with Echinochloa crus (25 g/ha), 31% in the data set with Echinochloa crus (50 g/ha) and 65% in the data set with Echinochloa crus (100 g/ha).
